Measured values from US11084829B2, “Ubiquitin-specific-processing protease 7 (USP7) modulators and uses thereof” (RAPT THERAPEUTICS, INC., priority 2018, dated 2021).

Target: USP7 (Homo sapiens, UniProt Q93009)
Test: USP7 inhibitory potency (IC50)
Type: biochemical
Experimental: Activity for compounds described herein is provided in Table 2, wherein potency levels are provided as follows: (Potency: USP7 IC50: A<0.01 μM; B=0.01-0.1 μM; C=>0.1 μM.

USP7, sequence (Q93009 whole entry): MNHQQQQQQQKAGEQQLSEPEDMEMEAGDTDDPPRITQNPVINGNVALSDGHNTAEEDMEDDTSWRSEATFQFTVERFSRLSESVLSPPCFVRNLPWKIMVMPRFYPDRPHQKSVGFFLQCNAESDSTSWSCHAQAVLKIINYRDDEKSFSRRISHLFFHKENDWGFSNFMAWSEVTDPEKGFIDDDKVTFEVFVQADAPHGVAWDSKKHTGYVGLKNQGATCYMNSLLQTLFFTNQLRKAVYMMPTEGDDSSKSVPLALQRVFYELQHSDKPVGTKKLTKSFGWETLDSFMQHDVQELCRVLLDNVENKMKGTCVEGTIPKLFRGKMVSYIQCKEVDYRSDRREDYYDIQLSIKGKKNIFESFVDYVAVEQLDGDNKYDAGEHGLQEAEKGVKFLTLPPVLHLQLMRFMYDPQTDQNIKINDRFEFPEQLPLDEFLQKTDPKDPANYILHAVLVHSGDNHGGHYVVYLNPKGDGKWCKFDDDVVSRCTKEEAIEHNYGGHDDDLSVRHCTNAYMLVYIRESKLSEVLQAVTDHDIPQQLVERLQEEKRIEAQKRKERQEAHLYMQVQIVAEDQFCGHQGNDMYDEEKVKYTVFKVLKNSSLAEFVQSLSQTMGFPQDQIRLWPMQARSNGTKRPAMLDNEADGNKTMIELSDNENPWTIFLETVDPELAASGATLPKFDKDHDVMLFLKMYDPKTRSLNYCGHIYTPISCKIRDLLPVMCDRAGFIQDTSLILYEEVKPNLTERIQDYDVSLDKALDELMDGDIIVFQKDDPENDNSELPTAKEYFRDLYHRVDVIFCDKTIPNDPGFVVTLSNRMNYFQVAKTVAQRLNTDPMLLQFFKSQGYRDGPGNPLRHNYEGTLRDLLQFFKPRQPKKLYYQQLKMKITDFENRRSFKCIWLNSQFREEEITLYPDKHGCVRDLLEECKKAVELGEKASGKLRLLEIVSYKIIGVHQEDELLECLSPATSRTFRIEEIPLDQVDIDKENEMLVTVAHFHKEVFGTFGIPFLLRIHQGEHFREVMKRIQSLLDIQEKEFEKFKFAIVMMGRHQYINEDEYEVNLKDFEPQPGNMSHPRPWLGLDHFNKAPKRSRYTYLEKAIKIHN

Structure (SMILES)	IC50 [nM]
CC1(C)CNCC(Cc2c(Cl)cc(Cl)cc2-c2ncnc3cc(Cn4cnccc4=O)sc23)O1 (stereo not drawn) [Example 251, 3-((4-(3,5-dichloro-2-((6,6-dimethylmorpholin-2-yl)methyl)phenyl)thieno[3,2-d]pyrimidin-6-yl)methyl)pyrimidin-4(3H)-one]	> 100
Cc1cc(Cl)cc(-c2ccnc3cc(CN4C(=O)CCCC4C(F)(F)F)sc23)c1CC1CNCCO1 (stereo not drawn) [Example 122, 1-((7-(5-chloro-3-methyl-2-(morpholin-2-ylmethyl)phenyl)thieno[3,2-b]pyridin-2-yl)methyl)-6-(trifluoromethyl)piperidin-2-one]	> 100
Cc1cc(Cl)cc(-c2ccnc3cc(CN4C(=O)C5CC5C4=O)sc23)c1C(=O)N1[C@@H](C)CNC[C@@H]1C (stereo partly drawn) [Example 35, 3-((7-(5-chloro-2-((2S,6S)-2,6-dimethylpiperazine-1-carbonyl)-3-methylphenyl)thieno[3,2-b]pyridin-2-yl)methyl)-3-azabicyclo[3.1.0]hexane-2,4-dione]	10 to 100
Cc1cc(Cl)cc(-c2ncnc3cc(CN4C(=O)CCC4=O)sc23)c1CN1C[C@@H](C)NC[C@@H]1C [Example 68, 1-((4-(5-chloro-2-(((2S,5R)-2,5-dimethylpiperazin-1-yl)methyl)-3-methylphenyl)thieno[3,2-d]pyrimidin-6-yl)methyl)pyrrolidine-2,5-dione]	10 to 100
C[C@H]1CNCCN1Cc1c(F)cc(Cl)cc1-c1ncnc2cc(CN3C(=O)C4CC4C3=O)sc12 (stereo partly drawn) [Example 61, 3-((4-(5-chloro-3-fluoro-2-(((S)-2-methylpiperazin-1-yl)methyl)phenyl)thieno[3,2-d]pyrimidin-6-yl)methyl)-3-azabicyclo[3.1.0]hexane-2,4-dione]	10 to 100
Cc1cc(Cl)cc(-c2ncnc3cc(Cn4c(=O)cc[nH]c4=O)sc23)c1C[C@@H]1CNCC(C)(C)O1 [Example 266, (R)-3-((4-(5-chloro-2-((6,6-dimethylmorpholin-2-yl)methyl)-3-methylphenyl)thieno[3,2-d]pyrimidin-6-yl)methyl)pyrimidine-2,4(1H,3H)-dione]	10 to 100
Cc1cc(Cl)cc(-c2ncnc3cc(CN4C(=O)CCN(CCF)C4=O)sc23)c1CN1[C@@H](C)CNC[C@@H]1C [Example 258, 3-((4-(5-chloro-2-(((2S,6S)-2,6-dimethylpiperazin-1-yl)methyl)-3-methylphenyl)thieno[3,2-d]pyrimidin-6-yl)methyl)-1-(2-fluoroethyl)dihydropyrimidine-2,4(1H,3H)-dione]	< 10
Cc1cc(Cl)cc(-c2ncnc3cc(CN4C(=O)CC[C@@H]4CF)sc23)c1C[C@@H]1CNCC(C)(C)O1 [Example 219, (R)-1-((4-(5-chloro-2-(((R)-6,6-dimethylmorpholin-2-yl)methyl)-3-methylphenyl)thieno[3,2-d]pyrimidin-6-yl)methyl)-5-(fluoromethyl)pyrrolidin-2-one]	< 10
Cc1cc(Cl)cc(-c2ccnc3cc(Cn4c(=O)ccn(CC(F)(F)F)c4=O)sc23)c1CC1CNCCO1 (stereo not drawn) [Example 109, 3-((7-(5-chloro-3-methyl-2-(morpholin-2-ylmethyl)phenyl)thieno[3,2-b]pyridin-2-yl)methyl)-1-(2,2,2-trifluoroethyl)pyrimidine-2,4(1H,3H)-dione]	< 10
COCc1cc2ncnc(-c3cc(Cl)cc(C)c3C[C@@H]3CNCC(C)(C)O3)c2s1 [Example 269, (R)-6-(4-chloro-2-(6-(methoxymethyl)thieno[3,2-d]pyrimidin-4-yl)-6-methylbenzyl)-2,2-dimethylmorpholine]	> 100
CCN1CC(=O)N(Cc2cc3ncnc(-c4cc(Cl)cc(C)c4CC4CNCCO4)c3s2)C1=O (stereo not drawn) [Example 188, 3-((4-(5-chloro-3-methyl-2-(morpholin-2-ylmethyl)phenyl)thieno[3,2-d]pyrimidin-6-yl)methyl)-1-ethylimidazolidine-2,4-dione]	< 10

Further lines, results first:

IC50 [nM]	Structure (SMILES)
< 10	Cc1cc(Cl)cc(-c2ccnc3cc(CN4C(=O)CCC4=O)sc23)c1CN1C[C@@H](C)NC[C@@H]1C [Example 44, 1-((7-(5-chloro-2-(((2S,5R)-2,5-dimethylpiperazin-1-yl)methyl)-3-methylphenyl)thieno[3,2-b]pyridin-2-yl)methyl)pyrrolidine-2,5-dione]
< 10	Cn1ccc(=O)n(Cc2cc3nccc(-c4cc(Cl)cc(Cl)c4CC4CNCCO4)c3s2)c1=O (stereo not drawn) [Example 142, 3-((7-(3,5-dichloro-2-(morpholin-2-ylmethyl)phenyl)thieno[3,2-b]pyridin-2-yl)methyl)-1-methylpyrimidine-2,4(1H,3H)-dione]
< 10	Cc1cc(Cl)cc(-c2ncnc3cc(CN4C(=O)CCCC4=O)sc23)c1CC1CNCCO1 (stereo not drawn) [Example 163, 1-((4-(5-chloro-3-methyl-2-(morpholin-2-ylmethyl)phenyl)thieno[3,2-d]pyrimidin-6-yl)methyl)piperidine-2,6-dione]
< 10	Cc1cc(Cl)cc(-c2ccnc3cc(CN4C(=O)CCC4=O)sc23)c1CN1CCNC[C@@H]1C [Example 8, (S)-1-((7-(5-chloro-3-methyl-2-((2-methylpiperazin-1-yl)methyl)phenyl)thieno[3,2-b]pyridin-2-yl)methyl)pyrrolidine-2,5-dione]
< 10	Cc1cc(Cl)cc(-c2ncnc3cc(CN4C(=O)CCN(C)C4=O)sc23)c1CC1CNCC2(COC2)O1 (stereo not drawn) [Example 238, 3-((4-(2-((2,5-dioxa-8-azaspiro[3.5]nonan-6-yl)methyl)-5-chloro-3-methylphenyl)thieno[3,2-d]pyrimidin-6-yl)methyl)-1-methyldihydropyrimidine-2,4(1H,3H)-dione]
< 10	Cc1cc(Cl)cc(-c2ncnc3cc(Cn4c(=O)ccn(CC(F)(F)F)c4=O)sc23)c1CN1C[C@@H](C)NC[C@@H]1C [Example 73, 3-((4-(5-chloro-2-(((2S,5R)-2,5-dimethylpiperazin-1-yl)methyl)-3-methylphenyl)thieno[3,2-d]pyrimidin-6-yl)methyl)-1-(2,2,2-trifluoroethyl)pyrimidine-2,4(1H,3H)-dione]
< 10	Cc1cc(Cl)cc(-c2ncnc3cc(CN4C(=O)C5CC5C4=O)sc23)c1CN1[C@@H](C)CN(C(=O)C(F)(F)F)C[C@@H]1C (stereo partly drawn) [Example 84, 3-((4-(5-chloro-2-(((2S,6S)-2,6-dimethyl-4-(2,2,2-trifluoroacetyl)piperazin-1-yl)methyl)-3-methylphenyl)thieno[3,2-d]pyrimidin-6-yl)methyl)-3-azabicyclo[3.1.0]hexane-2,4-dione]
< 10	Cc1cc(Cl)cc(-c2ccnc3cc(Cn4c(=O)ccn(C)c4=O)sc23)c1CC1CNCC2(CCC2)O1 (stereo not drawn) [Example 145, 3-((7-(2-((5-oxa-8-azaspiro[3.5]nonan-6-yl)methyl)-5-chloro-3-methylphenyl)thieno[3,2-b]pyridin-2-yl)methyl)-1-methylpyrimidine-2,4(1H,3H)-dione]
< 10	CN1CC(=O)N(Cc2cc3nccc(-c4cc(Cl)cc(Cl)c4CC4CNCCO4)c3s2)C1=O (stereo not drawn) [Example 141, 3-((7-(3,5-dichloro-2-(morpholin-2-ylmethyl)phenyl)thieno[3,2-b]pyridin-2-yl)methyl)-1-methylimidazolidine-2,4-dione]
< 10	CCN1CCN(Cc2c(C)cc(Cl)cc2-c2ncnc3cc(CN4C(=O)C5C(C4=O)C5(C)C)sc23)[C@@H](C)C1 (stereo partly drawn) [Example 54, 3-((4-(5-chloro-2-(((S)-4-ethyl-2-methylpiperazin-1-yl)methyl)-3-methylphenyl)thieno[3,2-d]pyrimidin-6-yl)methyl)-6,6-dimethyl-3-azabicyclo[3.1.0]hexane-2,4-dione]
